# Reference: patent publication US20220175761A1, “BI-LIGAND DRUG CONJUGATE AND USE THEREOF” (COHERENT BIOPHARMA (SUZHOU), LIMITED, priority 2019, published 2022)
# Numbered stars: 1 amine (or outer) side, 2 acyl side, 3 side chain; on linkers, the order of the positions; unused ones are H or OH. Square brackets hold non-standard residues; d marks the D form. Peptide text beside a SMILES is read from it. * marks the point of attachment. ξ: configuration not given here. X6 = CCc1c2c(nc3ccc(O)cc13)-c1cc3c(c(=O)n1C2)COC(=O)[C@@]3(CC)OC(=O)OCc1ccc(NC(=O)COCC(=O)NCCOCCOCCOCCOCCOCCn2nncc2CNC(=O)CCCCCN2C(=O)CC(*)C2=O)cc1; Pteroyl = Nc1nc2ncc(CNc3ccc(C(=O)*)cc3)nc2c(=O)[nH]1; γGlu = O=C(O)[C@H](CCC(=O)[*:2])N[*:1]; ξV = CC(C)C(N)C(=O)O
# Experiments:
# [1] = test system: KB, LNCaP, T-47D, RT4 and NCI-H460 tumor cell lines; test: Inhibition of tumor cell expansion, CCK8 (CB-10S); assay type: cell-based, human
# Method: Cell lines: KB human oral epidermoid carcinoma cells, NCI-H460 human lung cancer cells, RT4 human bladder cancer cells, T-47D human breast cancer cells and LNcap human prostate cancer cells
# The cells were prepared in advance, digested with trypsin, collected and counted; with a complete cell culture medium, KB cells were diluted to 3.5×10^4 cells/ml, LNCaP cells were diluted to 8.0×10^4 cells/ml, T-47D cells were diluted to 1.2×10^4 cells/ml, NCI-H460 cells were diluted to 2.5×10^4 cells/ml, and RT4 cells were diluted to 1.2×10^4 cells/ml; to each well of 96-well plates, 100 μl of the diluted cell solution was added; and negative control and blank control wells were set on each plate. The 96-well plates added with the cells were placed in an incubator at 37° C., 5% CO2 for culturing overnight.
# The samples were diluted with a culture medium to desired concentrations (see Table 12). […]
# (§1) To each well, 15 μl (10% of the liquid volume in a well) of a color developing solution from CCK-8 was added; the plates were incubated at 37° C. for an appropriate time (try to keep the OD value in the range of 1.0-2.0); the covers of the 96-well plates were removed, and the plates were read at 450 nm on a microplate reader (Molecular Devices Spectra MAX Plus). […]
# [2] = test system: KB, T-47D, NCI-H460, CALU-3, HuH-7, and LNCaP tumor cell lines; test: Inhibition of tumor cell expansion, CCK8 (CB-60SK); assay type: cell-based, human
# Method: (§2) Cell lines: KB human oral epidermoid carcinoma cells, T-47D human breast cancer cells, NCI-H460 human lung cancer cells, CALU-3 human lung adenocarcinoma cells, HuH-7 human liver cancer cells and LNCaP human prostate cancer cells
# (§3) The cells were prepared in advance, digested with trypsin, collected and counted; with a complete cell culture medium, KB cells were diluted to 2.5×10^4 cells/ml, T-47D cells were diluted to 1.3×10^4 cells/ml, NCI-H460 cells were diluted to 3.5×10^4 cells/ml, CALU-3 cells were diluted to 4.0×10^4 cells/ml, HuH-7 cells were diluted to 3.0×10^4 cells/ml, and LNCaP cells were diluted to 8.0×10^4 cells/ml; 100 μl of the diluted cell solution was added to each well; and negative control and blank control wells were set on each plate. The 96-well plates added with the cells were placed in an incubator at 37° C., 5% CO2 for culturing overnight.
# The samples were diluted with a culture medium to desired concentrations (see Table 14). […]
# as §1
# [3] = test system: KB, T-47D, NCI-H460, CALU-3, HuH-7, and LNCaP tumor cell lines; test: Inhibition of tumor cell expansion, CCK8 (CB-60S); assay type: cell-based, human
# Method: as §2
# as §3, with “2.0×10^4” for “2.5×10^4”, “1.5×10^4” for “1.3×10^4”, “2.0×10^4” for “3.5×10^4”, “3.0×10^4” for “4.0×10^4”, “4.0×10^4” for “3.0×10^4”, “well of 96-well plates;” for “well;”
# The samples were diluted with a culture medium to desired concentrations (see Table 13). […]
# as §1
# [4] = biological target: FOLH1 (Homo sapiens, UniProt Q04609); test: BIAcore T200: binding of FOLH1 to compound-FOLR1 complex; parameters: purchased Sino Biologicals (FOLH1); R&D System (FOLR1) 15877-H07H (FOLH1); 5646-FR (FOLR1)
# Source text: CM5 chip was conjugated with a ligand: FOLR1 (R&D System, Cat #: 5646-FR)
# Analyte: CB-20BK, FA-MMAE and FOLH1 (Sino Biologicals, Cat #: 15877-H07H)
# According to BIAcore T200 (GE) operating manual, FOLR1 was conjugated to the CM5 chip; CB-20BK or FA-MMAE was loaded first, and then FOLH1 was loaded; and the binding of FOLH1 to the CB-20BK-FOLR1 complex was detected.
# [5] = test system: LNCaP (human prostate cancer cells); test: Inhibition of cell line proliferation, CCK8; assay type: cell-based
# Source text: (§4) Since different cells have different sensitivity to a cell proliferation inhibitory toxicity of the payload in a ligand conjugate, the quantitative analysis may be interfered occasionally. A series of cell lines with known expression levels of receptors of different ligands were selected and tested for the response to inhibitory effects of the cell proliferation of a ligand conjugate and a single payload. The IC50 ratio of a single payload to that of a ligand conjugate in same cell line were taken to remove such interference.
# Experimental operations: LNCaP and 22RV1 cells were prepared in advance, counted, and plated in 96-well cell culture plates at a cell density of 4×10^4 cells/ml and 2.0×10^4 cells/ml, respectively (100 μl/well); negative control and blank control wells were set on each plate. After adherent cell culture overnight, the diluted samples to be tested were added at 50 μl/well. The plates were placed in an incubator at 37° C., 5% CO2 and cultured for 68-72 hours. To each well, 15 μl (10% of the liquid volume in a well) of a color developing solution from CCK8 was added; and the plates were incubated at 37° C. for 45-70 minutes and each plate was read at 450 nm on a microplate reader. The data was edited using SoftMax Pro and a 4-P fitting curve was plotted. […]
# [6] = test system: 22RV1 (human prostate cancer cells); test: Inhibition of cell line proliferation, CCK8; assay type: cell-based
# Source text: as §4
# Experimental operations: LNCaP and 22RV1 cells were prepared in advance, counted, and plated in 96-well cell culture plates at a cell density of 4×10^4 cells/ml and 2.0×10^4 cells/ml, respectively (100 μl/well); negative control and blank control wells were set on each plate. After adherent cell culture overnight, the diluted samples to be tested were added at 50 μl/well. The plates were placed in an incubator at 37° C., 5% CO2 and cultured for 68-72 hours. To each well, 15 μl (10% of the liquid volume in a well) of a color developing solution from CCK8 was added; and the plates were incubated at 37° C. for 45-70 minutes and each plate was read at 450 nm on a microplate reader. The data was edited using SoftMax Pro and a 4-P fitting curve was plotted.
# [7] = biological target: T1, FOLR1 (Homo sapiens, UniProt P15328); test: BIAcore T200 binding affinity to FOLR1 (CM5 chip conjugated with FOLR1)
# T1 construct: purchased R&D System 5646-FR
# Source text: Buffer: HBS-EP+ buffer 10× (GE, Cat #: BR100669), diluted 10 folds with deionized water before use.
# In the experiment, CM5 chip was conjugated with ligand FOLR1 (R&D System, Cat #: 5646-FR).
# Chain of FOLH1 (Q04609 44-750 limits assumed): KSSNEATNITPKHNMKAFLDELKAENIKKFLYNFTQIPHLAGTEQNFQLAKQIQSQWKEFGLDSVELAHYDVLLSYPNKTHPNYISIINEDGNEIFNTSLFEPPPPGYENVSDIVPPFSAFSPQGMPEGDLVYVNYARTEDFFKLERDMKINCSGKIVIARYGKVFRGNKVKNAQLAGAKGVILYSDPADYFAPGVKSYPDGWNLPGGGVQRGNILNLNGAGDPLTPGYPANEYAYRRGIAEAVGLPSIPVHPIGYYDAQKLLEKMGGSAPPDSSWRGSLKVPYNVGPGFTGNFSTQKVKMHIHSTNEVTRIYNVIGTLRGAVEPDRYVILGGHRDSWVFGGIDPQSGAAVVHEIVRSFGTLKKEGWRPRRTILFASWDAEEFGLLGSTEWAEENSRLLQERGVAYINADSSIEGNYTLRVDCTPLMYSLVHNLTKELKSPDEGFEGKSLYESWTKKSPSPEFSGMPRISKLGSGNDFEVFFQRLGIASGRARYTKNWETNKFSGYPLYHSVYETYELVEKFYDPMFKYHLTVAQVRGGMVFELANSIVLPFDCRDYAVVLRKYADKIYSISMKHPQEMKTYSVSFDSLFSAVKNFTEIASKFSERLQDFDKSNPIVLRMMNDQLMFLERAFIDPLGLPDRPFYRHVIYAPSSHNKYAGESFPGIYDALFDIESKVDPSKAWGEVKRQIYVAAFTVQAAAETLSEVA
# Chain of FOLH1 (P15328 25-233 partner limits assumed): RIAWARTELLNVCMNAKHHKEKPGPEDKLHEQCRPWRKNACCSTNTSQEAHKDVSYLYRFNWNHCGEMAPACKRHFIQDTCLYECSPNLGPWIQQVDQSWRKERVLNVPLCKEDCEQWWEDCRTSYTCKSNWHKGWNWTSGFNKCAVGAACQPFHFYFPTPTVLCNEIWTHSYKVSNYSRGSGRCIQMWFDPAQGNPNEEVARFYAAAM
# T1 sequence (P15328 25-233 limits assumed): as the sequence (P15328 25-233 partner limits assumed) above
compound,measurement,setting,value
CCc1c2c(nc3ccc(O)cc13)-c1cc3c(c(=O)n1C2)COC(=O)[C@@]3(CC)OC(=O)OCc1ccc(NC(=O)COCC(=O)NCCOCCOCCOCCOCCOCCn2nncc2CNC(=O)CCCCCN2C(=O)CC(SC[C@H](NC(=O)CC[C@H](NC(=O)c3ccc(NCc4cnc5[nH]c(N)nc(=O)c5n4)cc3)C(=O)O)C(=O)N[C@@H](CCCCN)C(=O)N[C@@H](CCC(=O)O)C(=O)N[C@@H](Cc3ccccc3)C(=O)N[C@@H](CC(C)C)C(=O)N[C@@H](Cc3cnc[nH]3)C(=O)N3CCC[C@H]3C(=O)N[C@@H](CO)C(=O)N[C@@H](CCCCN)C(=O)NC(C(=O)N[C@@H](CC(=O)O)C(=O)N[C@@H](CC(C)C)C(=O)N3CCC[C@H]3C(=O)N[C@@H](CCCNC(=N)N)C(=O)O)C(C)C)C2=O)cc1 (stereo partly drawn) [CB-10S] ({Pteroyl-γGlu}-C(X6)KEFLHPSK[ξV]DLPR-OH),inhibitory effect on growth and expansion of tumor cell lines,"[1]; 72 hours, CCK-8",has an inhibitory effect
same,IC50 compared between cell lines,"[1]; KB, LNcap, T-47D and RT4 versus NCI-H460",significantly lower
CCc1c2c(nc3ccc(O)cc13)-c1cc3c(c(=O)n1C2)COC(=O)[C@@]3(CC)OC(=O)OCc1ccc(NC(=O)[C@H](CCCNC(N)=O)NC(=O)COCC(=O)NCCOCCOCCOCCOCCOCCn2cc(C[C@H](NC(=O)[C@H](CCCCN)NC(=O)[C@H](CC(=O)O)NC(=O)[C@H](CC(=O)O)NC(=O)Cc3ccc(CNC(=O)NCCCC[C@H](NC(=O)N[C@@H](CCC(=O)O)C(=O)O)C(=O)O)cc3)C(=O)N[C@@H](CCCCNC(=O)CC[C@H](NC(=O)c3ccc(NCc4cnc5[nH]c(N)nc(=O)c5n4)cc3)C(=O)O)C(N)=O)nn2)cc1 [CB-60SK],inhibitory effect on growth and expansion of tumor cell lines,"[2]; 72 hours, CCK-8",has an inhibitory effect
same,IC50 compared between cell lines,"[2]; LNCaP and HuH-7 versus T-47D, NCI-H460, CALU-3 and KB",significantly lower
CCc1c2c(nc3ccc(O)cc13)-c1cc3c(c(=O)n1C2)COC(=O)[C@@]3(CC)OC(=O)OCc1ccc(NC(=O)[C@H](CCCNC(N)=O)NC(=O)COCC(=O)NCCOCCOCCOCCOCCOCCn2cc(C[C@H](NC(=O)[C@H](CC(=O)O)NC(=O)[C@H](CC(=O)O)NC(=O)Cc3ccc(CNC(=O)NCCCC[C@H](NC(=O)N[C@@H](CCC(=O)O)C(=O)O)C(=O)O)cc3)C(=O)N[C@@H](CCCCNC(=O)CC[C@H](NC(=O)c3ccc(NCc4cnc5[nH]c(N)nc(=O)c5n4)cc3)C(=O)O)C(N)=O)nn2)cc1 [CB-60S],inhibitory effect on growth and expansion of tumor cell lines,"[3]; 72 hours, CCK-8",has an inhibitory effect
same,IC50 compared between cell lines,"[3]; LNCaP and HuH-7 versus NCI-H460, KB, T-47D and CALU-3",significantly lower
"CC[C@@]1(O)C(=O)OCc2c1cc1n(c2=O)Cc2c-1nc1cc(F)c(C)c3c1c2[C@@H](NC(=O)COCNC(=O)CNC(=O)[C@H](Cc1ccccc1)NC(=O)CNC(=O)CNC(=O)CCCCCN1C(=O)CC(SC[C@H](NC(=O)CC[C@H](NC(=O)c2ccc(NCc4cnc5[nH]c(N)nc(=O)c5n4)cc2)C(=O)O)C(=O)N[C@@H](CCCCN)C(N)=O)C1=O)CC3 (stereo partly drawn) [FA-MMAE, reference compound]",Binding of compound-FOLR1 complex to FOLH1 solution,[4]; FOLH1 concentration 0.0625 μM,−1 RU
same,Binding of compound-FOLR1 complex to FOLH1 solution,[4]; FOLH1 concentration 0.125 μM,4.2 RU
same,Binding of compound-FOLR1 complex to FOLH1 solution,[4]; FOLH1 concentration 0.25 μM,8.4 RU
same,Binding of compound-FOLR1 complex to FOLH1 solution,[4]; FOLH1 concentration 0.5 μM,9.8 RU
same,amount of FOLH1 bound to compound-FOLR1 complex (in words),[4]; FOLH1 solution at a high concentration,tends to saturate at a high concentration
same,IC50 ratio (MMAE/conjugate),[5]; LNCaP,0.010
same,IC50 ratio in LNCaP relative to IC50 ratio in 22RV1 (times higher / factor),[5]; LNCaP versus 22RV1,1.5
same,IC50,"[5]; LNCaP, 68-72 hours, CCK8",264 nM
same,IC50 ratio (MMAE/conjugate),[6]; 22RV1,0.006
same,IC50,"[6]; 22RV1, 68-72 hours, CCK8",1010 nM
same,kd,"[7]; FOLR1 on CM5 chip, N/D = no specific binding was detected",0.000115 s⁻¹
same,kon,[7]; read-out: ka,1.79e+06 M⁻¹ s⁻¹
